Measured values reported in patent US20250114338A1, “TETRAHYDRO-PYRIDO[3,4-b]INDOLE ESTROGEN RECEPTOR MODULATORS AND USES THEREOF” (Genentech, Inc., priority 2014, published 2025).

Tested on: ER-alpha MCF7
Assay: ER-alpha MCF7 HCS EC50; stated as measured by in vitro cell proliferation assays of Examples 902 and 903
Format: cell-based
Conditions: Homo sapiens, MCF7, MCF7 cells; Table 2
In short: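 MCF7 cells seeded 1000-2000 cells/well for 16 h, then treated with nine-point 1:2 DMSO dilution series in quadruplicate at 37 °C, 5% CO2 for 4 days. Viable cells quantified by CellTiter-Glo ATP luminescence; EC50 calculated. Controls: fulvestrant at final 100 nM, DMSO 0.2% v/v.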

| Structure (SMILES) | EC50 |
| --- | --- |
| C[C@@H]1Cc2c([nH]c3cccc(F)c23)[C@@H](c2c(F)cc(NC3CN(CCCF)C3)cc2F)N1C[C@@](C)(F)CO [Example 400, (R)-3-((1R,3R)-1-(2,6-difluoro-4-((1-(3-fluoropropyl)azetidin-3-yl)amino)phenyl)-5-fluoro-3-methyl-3,4-dihydro-1H-pyrido[3,4-b]indol-2(9H)-yl)-2-fluoro-2-methylpropan-1-ol] | 0.023 nM |
| C[C@H]1Cc2c([nH]c3cccc(F)c23)[C@H](c2c(F)cc(NC3CN(CCCF)C3)cc2F)N1C[C@](C)(F)CO [Example 401, (S)-3-((1S,3S)-1-(2,6-difluoro-4-((1-(3-fluoropropyl)azetidin-3-yl)amino)phenyl)-5-fluoro-3-methyl-3,4-dihydro-1H-pyrido[3,4-b]indol-2(9H)-yl)-2-fluoro-2-methylpropan-1-ol] | 2.4 nM |
| C[C@@H]1Cc2c([nH]c3ccccc23)[C@@H](c2c(F)cc(OCCN3CC(CF)C3)cc2F)N1C[C@H](CO)CF [Example 402, (R)-3-((1R,3R)-1-(2,6-difluoro-4-(2-(3-(fluoromethyl)azetidin-1-yl)ethoxy)phenyl)-3-methyl-3,4-dihydro-1H-pyrido[3,4-b]indol-2(9H)-yl)-2-(fluoromethyl)propan-1-ol] | 0.032 nM |
| C[C@@H]1Cc2c([nH]c3ccccc23)[C@@H](c2c(F)cc(OCCN3CC(CF)C3)cc2F)N1C[C@@H](CO)CF [Example 403, (S)-3-((1R,3R)-1-(2,6-difluoro-4-(2-(3-(fluoromethyl)azetidin-1-yl)ethoxy)phenyl)-3-methyl-3,4-dihydro-1H-pyrido[3,4-b]indol-2(9H)-yl)-2-(fluoromethyl)propan-1-ol] | 0.13 nM |
| C[C@@H]1Cc2c([nH]c3ccccc23)[C@@H](c2c(F)cc(N(C)C3CN(CCCF)C3)cc2F)N1CC(C)(C)F [Example 404, N-(3,5-difluoro-4-((1R,3R)-2-(2-fluoro-2-methylpropyl)-3-methyl-2,3,4,9-tetrahydro-1H-pyrido[3,4-b]indol-1-yl)phenyl)-1-(3-fluoropropyl)-N-methylazetidin-3-amine] | 0.745 nM |
| CC1(C)Cc2c([nH]c3ccccc23)[C@@H](c2c(F)cc(NC3CN(CCCF)C3)cc2F)N1CC(F)F [Example 405, (R)-N-(4-(2-(2,2-difluoroethyl)-3,3-dimethyl-2,3,4,9-tetrahydro-1H-pyrido[3,4-b]indol-1-yl)-3,5-difluorophenyl)-1-(3-fluoropropyl)azetidin-3-amine] | 0.23 nM |
| CC1(C)Cc2c([nH]c3ccccc23)[C@H](c2c(F)cc(NC3CN(CCCF)C3)cc2F)N1CC(F)F [Example 406, (S)-N-(4-(2-(2,2-difluoroethyl)-3,3-dimethyl-2,3,4,9-tetrahydro-1H-pyrido[3,4-b]indol-1-yl)-3,5-difluorophenyl)-1-(3-fluoropropyl)azetidin-3-amine] | 1.8 nM |
| C[C@@H]1Cc2c([nH]c3cccc(F)c23)[C@@H](c2c(F)cc(NC3CN(CCCF)C3)cc2F)N1CC(F)(F)F [Example 407, N-(3,5-difluoro-4-((1R,3R)-5-fluoro-3-methyl-2-(2,2,2-trifluoroethyl)-2,3,4,9-tetrahydro-1H-pyrido[3,4-b]indol-1-yl)phenyl)-1-(3-fluoropropyl)azetidin-3-amine] | 0.12 nM |
| C[C@H]1Cc2c([nH]c3cccc(F)c23)[C@H](c2c(F)cc(NC3CN(CCCF)C3)cc2F)N1CC(F)(F)F [Example 408, N-(3,5-difluoro-4-((1S,3S)-5-fluoro-3-methyl-2-(2,2,2-trifluoroethyl)-2,3,4,9-tetrahydro-1H-pyrido[3,4-b]indol-1-yl)phenyl)-1-(3-fluoropropyl)azetidin-3-amine] | 6.3 nM |
| C[C@H]1Cc2c([nH]c3c(F)cccc23)[C@H](c2c(F)cc(NC3CN(CCCF)C3)cc2F)N1CC(F)(F)F [Example 409, N-(3,5-difluoro-4-((1S,3S)-8-fluoro-3-methyl-2-(2,2,2-trifluoroethyl)-2,3,4,9-tetrahydro-1H-pyrido[3,4-b]indol-1-yl)phenyl)-1-(3-fluoropropyl)azetidin-3-amine] | 26 nM |
| C[C@@H]1Cc2c([nH]c3c(F)cccc23)[C@@H](c2c(F)cc(NC3CN(CCCF)C3)cc2F)N1CC(F)(F)F [Example 410, N-(3,5-difluoro-4-((1R,3R)-8-fluoro-3-methyl-2-(2,2,2-trifluoroethyl)-2,3,4,9-tetrahydro-1H-pyrido[3,4-b]indol-1-yl)phenyl)-1-(3-fluoropropyl)azetidin-3-amine] | 0.12 nM |
| C[C@@H]1Cc2c([nH]c3ccccc23)[C@@H](c2c(F)cc(OC3CN(CCCF)C3)cc2F)N1CC1(F)COC1 [Example 411, (1R,3R)-1-(2,6-difluoro-4-(1-(3-fluoropropyl)azetidin-3-yloxy)phenyl)-2-((3-fluorooxetan-3-yl)methyl)-3-methyl-2,3,4,9-tetrahydro-1H-pyrido[3,4-b]indole] | 0.07 nM |
| C[C@H]1Cc2c([nH]c3cc(F)ccc23)[C@H](c2c(F)cc(NC3CN(CCCF)C3)cc2F)N1C[C@](C)(F)CO [Example 412, (S)-3-((1S,3S)-1-(2,6-difluoro-4-((1-(3-fluoropropyl)azetidin-3-yl)amino)phenyl)-7-fluoro-3-methyl-3,4-dihydro-1H-pyrido[3,4-b]indol-2(9H)-yl)-2-fluoro-2-methylpropan-1-ol] | 1.3 nM |
| C[C@@H]1Cc2c([nH]c3cc(F)ccc23)[C@@H](c2c(F)cc(NC3CN(CCCF)C3)cc2F)N1C[C@@](C)(F)CO [Example 413, (R)-3-((1R,3R)-1-(2,6-difluoro-4-((1-(3-fluoropropyl)azetidin-3-yl)amino)phenyl)-7-fluoro-3-methyl-3,4-dihydro-1H-pyrido[3,4-b]indol-2(9H)-yl)-2-fluoro-2-methylpropan-1-ol] | 0.018 nM |
| C[C@@H]1Cc2c([nH]c3cc(F)ccc23)[C@@H](c2c(F)cc(NC3CN(CCCF)C3)cc2F)N1C[C@](C)(F)CO [Example 414, (S)-3-((1R,3R)-1-(2,6-difluoro-4-((1-(3-fluoropropyl)azetidin-3-yl)amino)phenyl)-7-fluoro-3-methyl-3,4-dihydro-1H-pyrido[3,4-b]indol-2(9H)-yl)-2-fluoro-2-methylpropan-1-ol] | 0.12 nM |
| C[C@H]1Cc2c([nH]c3cc(F)ccc23)[C@H](c2c(F)cc(NC3CN(CCCF)C3)cc2F)N1C[C@@](C)(F)CO [Example 415, (R)-3-((1S,3S)-1-(2,6-difluoro-4-((1-(3-fluoropropyl)azetidin-3-yl)amino)phenyl)-7-fluoro-3-methyl-3,4-dihydro-1H-pyrido[3,4-b]indol-2(9H)-yl)-2-fluoro-2-methylpropan-1-ol] | 9.5 nM |
| C[C@@H]1Cc2c([nH]c3cccc(F)c23)[C@@H](c2c(F)cc(NC3CN(CCCF)C3)cc2F)N1CC(F)(F)CO [Example 416, 3-((1R,3R)-1-(2,6-difluoro-4-((1-(3-fluoropropyl)azetidin-3-yl)amino)phenyl)-5-fluoro-3-methyl-3,4-dihydro-1H-pyrido[3,4-b]indol-2(9H)-yl)-2,2-difluoropropan-1-ol] | 0.024 nM |
| C[C@H]1Cc2c([nH]c3cccc(F)c23)[C@H](c2c(F)cc(NC3CN(CCCF)C3)cc2F)N1CC(F)(F)CO [Example 417, 3-((1S,3S)-1-(2,6-difluoro-4-((1-(3-fluoropropyl)azetidin-3-yl)amino)phenyl)-5-fluoro-3-methyl-3,4-dihydro-1H-pyrido[3,4-b]indol-2(9H)-yl)-2,2-difluoropropan-1-ol] | 3.3 nM |
